Reference: patent publication US8901118B2, “Compounds and methods for kinase modulation, and indications therefor” (Plexxikon Inc., priority 2010, dated 2014)

target: T1, BCR-FMS BaF3 cells (Homo sapiens, UniProt P07333); test: BaF3 BCR-FMS cell proliferation assay (ATPlite); assay type: cell-based; conditions: read-out: Inhibition of Cell Proliferation IC50, BCR/BaF3 Fms
T1 construct: fused on or other part: P11274 (Breakpoint cluster region protein)
T1 sequence (P07333 582-910): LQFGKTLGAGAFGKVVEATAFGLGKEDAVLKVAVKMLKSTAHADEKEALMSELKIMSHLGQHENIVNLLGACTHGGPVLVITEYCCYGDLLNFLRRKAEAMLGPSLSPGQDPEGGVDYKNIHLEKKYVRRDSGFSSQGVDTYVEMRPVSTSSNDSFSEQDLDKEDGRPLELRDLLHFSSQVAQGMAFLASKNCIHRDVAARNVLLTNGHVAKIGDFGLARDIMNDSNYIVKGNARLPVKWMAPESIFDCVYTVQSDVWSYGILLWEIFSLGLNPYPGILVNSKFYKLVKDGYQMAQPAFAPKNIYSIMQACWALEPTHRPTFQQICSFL
Outline: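 IL-3-free growth, 3-day compound exposure (8-point 1:3 titration, top 10 μM, DMSO control), 37 °C 5% CO2. BaF3 10,000 or MV-4-11 25,000 cells/well, plated overnight beforehand. Read-out ATPlite luminescence vs concentration → IC50.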

SMILES	IC50 [nM]
Cc1cnc2[nH]cc(Cc3cnc(Nc4ccc(C(C)(C)C)cc4)nc3)c2c1 [Compound P-3030, (4-tert-Butyl-phenyl)-[5-(5-methyl-1H-pyrrolo[2,3-b]pyridin-3-ylmethyl)-pyrimidin-2-yl]-amine amine]	< 10
COc1ccc(Nc2ncc(Cc3c[nH]c4ncc(C)cc34)cn2)cc1 [Compound P-3021, (4-Methoxy-phenyl)-[5-(5-methyl-1H-pyrrolo[2,3-b]pyridin-3-ylmethyl)-pyrimidin-2-yl]-amine]	< 10
COc1ccc(Nc2ncc(Cc3c[nH]c4ncc(C)cc34)cn2)cn1 [Compound P-3020, (6-Methoxy-pyridin-3-yl)-[5-(5-methyl-1H-pyrrolo[2,3-b]pyridin-3-ylmethyl)-pyrimidin-2-yl]-amine]	< 10
CCCOc1ccc(Nc2ncc(Cc3c[nH]c4ncc(C)cc34)cn2)cc1 [Compound P-3024, [5-(5-Methyl-1H-pyrrolo[2,3-b]pyridin-3-ylmethyl)-pyrimidin-2-yl]-(4-propoxy-phenyl)-amine]	< 10
CCn1ccc(Nc2ncc(Cc3c[nH]c4ncc(C)cc34)cn2)n1 [Compound P-3035, (1-Ethyl-1H-pyrazol-3-yl)-[5-(5-methyl-1H-pyrrolo[2,3-b]pyridin-3-ylmethyl)-pyrimidin-2-yl]-amine]	< 100
Cc1cnc2[nH]cc(Cc3cnc(Nc4ccc(S(C)(=O)=O)cc4)nc3)c2c1 [Compound P-3034, (4-Methanesulfonyl-phenyl)-[5-(5-methyl-1H-pyrrolo[2,3-b]pyridin-3-ylmethyl)-pyrimidin-2-yl]-amine]	< 10
CCn1cc(Nc2ncc(Cc3c[nH]c4ncc(C)cc34)cn2)cn1 [Compound P-3036, (1-Ethyl-1H-pyrazol-4-yl)-[5-(5-methyl-1H-pyrrolo[2,3-b]pyridin-3-ylmethyl)-pyrimidin-2-yl]-amine]	< 10
Fc1cccc(Nc2ncc(Cc3c[nH]c4ncc(Cl)cc34)cn2)c1 [Compound P-3017, [5-(5-Chloro-1H-pyrrolo[2,3-b]pyridin-3-ylmethyl)-pyrimidin-2-yl]-(3-fluoro-phenyl)-amine]	< 1000
Clc1cnc2[nH]cc(Cc3cnc(NC4CCCC4)nc3)c2c1 [Compound P-3003, [5-(5-Chloro-1H-pyrrolo[2,3-b]pyridin-3-ylmethyl)-pyrimidin-2-yl]-cyclopentyl-amine]	< 1000
COc1ccc(Nc2ncc(Cc3c[nH]c4ncc(C)cc34)cn2)cc1F [Compound P-3023, (3-Fluoro-4-methoxy-phenyl)-[5-(5-methyl-1H-pyrrolo[2,3-b]pyridin-3-ylmethyl)-pyrimidin-2-yl]-amine]	< 100
Cc1cnc2[nH]cc(Cc3cnc(Nc4cc(C(C)(C)C)n[nH]4)nc3)c2c1 [Compound P-3029, (5-tert-Butyl-2H-pyrazol-3-yl)-[5-(5-methyl-1H-pyrrolo[2,3-b]pyridin-3-ylmethyl)-pyrimidin-2-yl]-amine]	< 100
Cc1cnc2[nH]cc(Cc3cnc(Nc4cc(-c5ccc(F)cc5)n[nH]4)nc3)c2c1 [Compound P-3028, [5-(4-Fluoro-phenyl)-2H-pyrazol-3-yl]-[5-(5-methyl-1H-pyrrolo[2,3-b]pyridin-3-ylmethyl)-pyrimidin-2-yl]-amine]	< 1000
Clc1cnc2[nH]cc(Cc3cnc(NC4CC4)nc3)c2c1 [Compound P-3005, [5-(5-Chloro-1H-pyrrolo[2,3-b]pyridin-3-ylmethyl)-pyrimidin-2-yl]-cyclopropyl-amine]	< 1000
CSc1ccc(Nc2ncc(Cc3c[nH]c4ncc(C)cc34)cn2)cc1 [Compound P-3033, [5-(5-Methyl-1H-pyrrolo[2,3-b]pyridin-3-ylmethyl)-pyrimidin-2-yl]-(4-methylsulfanyl-phenyl)-amine]	< 10
Cc1cnc2[nH]cc(Cc3cnc(Nc4cc(C(F)(F)F)n[nH]4)nc3)c2c1 [Compound P-3037, [5-(5-Methyl-1H-pyrrolo[2,3-b]pyridin-3-ylmethyl)-pyrimidin-2-yl]-(5-trifluoromethyl-2H-pyrazol-3-yl)-amine]	> 1000
CCc1ccc(Nc2ncc(Cc3c[nH]c4ncc(C)cc34)cn2)cc1 [Compound P-3025, (4-Ethyl-phenyl)-[5-(5-methyl-1H-pyrrolo[2,3-b]pyridin-3-ylmethyl)-pyrimidin-2-yl]-amine]	< 10
Cc1cnc2[nH]cc(Cc3cnc(Nc4ccc(C(O)(C(F)(F)F)C(F)(F)F)cc4)nc3)c2c1 [Compound P-3031, 1,1,1,3,3,3-Hexafluoro-2-{4-[5-(5-methyl-1H-pyrrolo[2,3-b]pyridin-3-ylmethyl)-pyrimidin-2-ylamino]-phenyl}-propan-2-ol]	< 10
COc1cc(Nc2ncc(Cc3c[nH]c4ncc(C)cc34)cn2)ccc1F [Compound P-3022, (4-Fluoro-3-methoxy-phenyl)-[5-(5-methyl-1H-pyrrolo[2,3-b]pyridin-3-ylmethyl)-pyrimidin-2-yl]-amine]	< 100
CCOc1ccc(Nc2ncc(Cc3c[nH]c4ncc(C)cc34)cn2)cc1 [Compound P-3026, (4-Ethoxy-phenyl)-[5-(5-methyl-1H-pyrrolo[2,3-b]pyridin-3-ylmethyl)-pyrimidin-2-yl]-amine]	< 10

Other lines, results leading:

IC50 [nM]	SMILES
< 100	CCOc1ncnc2[nH]cc(Cc3ccc(Nc4ccc(Br)nc4)nc3F)c12 [Compound P-4020, (6-Bromo-pyridin-3-yl)-[5-(4-ethoxy-7H-pyrrolo[2,3-d]pyrimidin-5-ylmethyl)-6-fluoro-pyridin-2-yl]-amine]
< 100	Cc1ccc(Nc2ccc(Cc3c[nH]c4ncc(Cl)cc34)c(F)n2)cn1 [Compound P-3042, [5-(5-Chloro-1H-pyrrolo[2,3-b]pyridin-3-ylmethyl)-6-fluoro-pyridin-2-yl]-(6-methyl-pyridin-3-yl)-amine]
< 10	CCOc1ccc(Nc2ccc(Cc3c[nH]c4ncnc(C5CC5)c34)c(F)n2)cn1 [Compound P-4026, [5-(4-Cyclopropyl-7H-pyrrolo[2,3-d]pyrimidin-5-ylmethyl)-6-fluoro-pyridin-2-yl]-(6-ethoxy-pyridin-3-yl)-amine]
< 1000	CCOc1ncnc2[nH]cc(Cc3ccc(Nc4cccnc4)nc3F)c12 [Compound P-4021, [5-(4-Ethoxy-7H-pyrrolo[2,3-d]pyrimidin-5-ylmethyl)-6-fluoro-pyridin-2-yl]-pyridin-3-yl-amine]
< 100	CCOc1ccc(Nc2ccc(C(=O)c3c[nH]c4ncnc(C)c34)c(F)n2)cn1 [Compound P-4032, [6-(6-Ethoxy-pyridin-3-ylamino)-2-fluoro-pyridin-3-yl]-(4-methyl-7H-pyrrolo[2,3-d]pyrimidin-5-yl)-methanone]
< 100	CCOc1ccc(Nc2ccc(C(=O)c3c[nH]c4ncnc(C5CC5)c34)c(F)n2)cn1 [Compound P-4027, (4-Cyclopropyl-7H-pyrrolo[2,3-d]pyrimidin-5-yl)-[6-(6-ethoxy-pyridin-3-ylamino)-2-fluoro-pyridin-3-yl]-methanone]
< 1000	Cc1cnc2[nH]cc(Cc3cnc(Nc4cc(OC(C)C)n[nH]4)nc3)c2c1 [Compound P-3038, (5-Isopropoxy-2H-pyrazol-3-yl)-[5-(5-methyl-1H-pyrrolo[2,3-b]pyridin-3-ylmethyl)-pyrimidin-2-yl]-amine]
< 100	CCOc1ccc(Nc2ccc(C(=O)c3c[nH]c4ncc(C)cc34)c(F)n2)cn1 [Compound P-3045, [6-(6-ethoxy-pyridin-3-ylamino)-2-fluoro-pyridin-3-yl]-(5-methyl-1H-pyrrolo[2,3-b]pyridin-3-yl)-methanone]
